We go through 17 molecules from patent publication US20040014721A1, “Method for using tethered bis(polyhydroxyphenyls) and O-alkyl derivatives thereof in treating inflammatory conditions of the central nervous system” (Oklahoma Medical Research Foundation, priority 2002, published 2004).

Data set [1] concerns C6 astrocyte culture exposed to lipopolysaccharide plus interferon gamma. As to conditions: LPS-stimulated C6 astrocyte model, Soliman et al., 1998; cited from earlier work.
Data set [2] concerns TNFα-Stimulated NO2^− Production in EOC-20 Cells. Nature of the data set: TNFα-stimulated nitrite (NO2−) production in EOC-20 microglial cells, Griess assay. The data set is classed as cell-based, mouse. The following applies: for IC50: read-out: IC50. As for the experimental part: Cells were cultured in 24 well plates until confluent then treated with test agent, which was dissolved at 100× final concentration in dimethylsulfoxide (DMSO), or with vehicle only. Thirty minutes after treatment with test agent, cells were treated with 10 ng/mL recombinant mouse TNFα (Pharmingen, San Diego, Calif. USA). […] Each compound was tested at 100 μM, 20 μM, 4 μM, 0.8 μM and 0 μM in the presence of TNFα. Four wells of cells were used for each concentration of test agent.
(§1) Lower IC50 values indicate improved efficacy. FIG. 2 illustrates the principle of the measurement using NDGA as an example test agent. In order to determine viability, cell culture medium was replaced with phenol-free DMEM (Gibco) containing 20 μL/mL of MTT viability reagent (Promega). […] Control cells were taken to indicate 100% viability and intermediate values of MTT reduction were scaled to percentage of control. For each compound, an LD50 value was determined by extrapolation through sublethal concentrations. This value represents the concentration that reduced the MTT viability parameter by 50%.

The test system of another data set is C57/B6 mice. Nature of the data set: 3-nitropropionic acid (3NP) striatal damage model, rotarod and balance beam. The format is in vivo. The following applies: 2500 ppm in diet for one month, then 3NP 50 mg/kg i.p. every 12 h for 5 days. As for the experimental part:
Mice were then injected with 50 mg/kg 3NP intraperitoneally, every 12 h for 5 days. Motor performance was assessed daily by a rotarod task and balance was assessed by a balance wire task. In the rotarod task (Hensley et al. 2002), animals were placed on a bar rotating at 1 rpm and accelerating 10 rpm/minute until the animal fell from the bar. In the balance beam test, mice were placed on a 2-cm balance beam by suspending them by the tail, orienting them perpendicular to the beam, and placing the forepaws followed by hindpaws on the balance beam. Mice were left on the beam until they fell onto a soft cushion 75 cm below or until 5 min elapsed. The longest time of each pair of trials was used for statistical analysis.

In another data set the test system is EOC-20 cells. As for the experimental part: as §1
A further data set relates to LnCAP Production of PSA. The data set can be described thus: LnCAP production of PSA (ELISA). The format is cell-based. The following applies: 24 h. As for the experimental part: LnCAP prostate cancer cells were be cultured according to established methods (Horoszewicz et al., 1983). These cells product prostate-specific antigen (PSA), a serine protease that predicts metastatic potential ([…] et al., 2000). […] Each drug was tested in triplicate at each concentration. Medium was removed and tested for PSA concentration using a commercially available enzyme-linked immunosorbent assay (ELISA). Viability was determined in the adherent cells using the MTT assay.

Data set [3] deals with TNFα-Mediated Nitrite Production in EOC-20 Cells. The data set can be described thus: Leukotrienes added to EOC-20 cells with or without low-dose TNFα, nitrite at 24 h. The data set is classed as cell-based, mouse. The following applies: for autonomous stimulation of NO2− production: without TNFα. The protocol: Because 5LOX inhibitors tended to antagonize TNFα, the converse experiment was performed of directly adding 5LOX metabolites to EOC-20 cells in the presence or absence of TNFα. LTB4 was added to microglia at 10 μM and TNFα was added at a low dose (4 ng/mL) 10 min later. Nitrite was assayed at 24 h. […] Similar examples exist in the literature of LTB4 synergizing with IFNγ to activate macrophages (Talvani et al., 2002).

In data set [4] the test system is pro-inflammatory cytokines in EOC-20 microglial cells. Nature of the data set: Multiprobe ribonuclease protection assay of cytokine transcription in TNFα-stimulated EOC-20 cells. The data set is classed as cell-based, mouse. The source says: It was noted that IL1β, IL1RA, IFNγ and MIF were affected by the treatments, while IL18 was not.
The subject of another data set is G93A-SOD1 mice. As to conditions: administered chronically; Gurney et al., 1996; cited from earlier work.
In the next data set the test system is lipoxygenase. As to conditions: cited from earlier work.
Another data set concerns the target T1, human wild-type SOD1 (Homo sapiens, UniProt P00441).
T1 construct: purified to homogeneity from human erythrocytes; from tissue; host or cells: human erythrocytes
The data set can be described thus: BIAcore binding of 5LOX to immobilized SOD1. As to conditions: preliminary Scatchard analysis, upper bound. The source says: Using several techniques that allow the study of protein-protein binding interactions in vitro, the interaction of SOD1 with 5LOX may be investigated. One approach involves the use of BIAcore instrumentation (Amersham-Pharmacia, Upsala, Sweden). The BIA (biomolecular interaction analysis) system consists of a solid-phase support upon which a protein (the ligand) can be covalently immobilized. This surface is placed in contact with a microfluidic cartridge, which dispenses a second protein (the analyte) across the binding surface. Adherence of the analyte to the immobilized ligand is measured by surface plasmon resonance (SPR) spectrometry. The surface plasmon resonance detector responds to refractive index changes in the vicinity of the sensor surface as the immobilized species interacts with its binding partner in the fluid phase. Data output from the BIAcore instrument takes the form of “sensorgrams” (FIG. 14A). Sensorgrams can be interpreted qualitatively, to assess whether a nonspecific binding event occurs, or quantitatively, in order to measure binding affinity.
In a previous experiment, human wild-type SOD1 (purified to homogeneity from human erythrocytes) was covalently immobilized to the BIAcore chip via surface lysine residues, using standard carbodiimide coupling chemistry. […] Experiments to quantitate the binding affinity are conducted. […]

Setting [5] is: Table III, 10 ng/mL TNFα, 24 hr, by interpolation.
Where [6] appears, read: Table III, MTT viability, by extrapolation through sublethal concentrations.
The mark [7] stands for this setting: Mus musculus, 24 h, Table III, 10 ng/mL TNFα, 24 hr, by interpolation.
Where [8] appears, read: Homo sapiens, LNCaP, extrapolated.

Where two headings read alike, the source gives them in different places. Marks after values point to notes of the source that are not given here.

T1 sequence (P00441 2-154 limits assumed): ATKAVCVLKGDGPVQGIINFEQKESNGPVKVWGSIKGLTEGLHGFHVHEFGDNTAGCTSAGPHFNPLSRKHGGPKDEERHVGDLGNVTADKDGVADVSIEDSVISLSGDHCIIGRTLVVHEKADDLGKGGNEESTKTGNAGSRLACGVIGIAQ

The term IC50 denotes the concentration that inhibits the measured activity by half. Consider “7-Bis (4-hydroxy-3-methoxyphenyl)-1,6-heptadiene-3,5-dione [Curcumin]”, for which the figures for the IC50 in data set [1], in data set [2] (setting [5]) and in data set [2] (Table V) were 72 µM, 7 µM and 14 µM, respectively. Also, the “balance test” value in the data set with C57/B6 mice is “no effect”. Also, the “rotarod test” value in the data set with C57/B6 mice is recorded as “possibly a detrimental effect”.

The molecule `O=c1cc(-c2ccccc2)oc2cccc(O)c12` [5-OH-flavone] came in with an LD50 in the data set with EOC-20 cells of 310 μm. For the same molecule, the results for the IC50 (with LnCAP Production of PSA (extrapolated); in [2] (setting [5])) were 227 µM and 34 µM, respectively.

Consider `O=c1cc(-c2ccccc2)oc2cc(O)cc(O)c12` [Chrysin, 5,7-dihydroxy-flavone], for which, in the data set with EOC-20 cells (setting [6]), the LD50 is 85 μm. The IC50 in the data set on LnCAP Production of PSA (Homo sapiens, LNCaP) turned out to be 91 µM; in [2] (setting [7]), 63 µM.

On to `O=c1c(-c2ccc(O)cc2)coc2cc(O)ccc12` [Daidzein, 4,7-dihydroxyisoflavone], for which the IC50 was 130 µM in the data set with LnCAP Production of PSA (setting [8]) and 114 µM in data set [2] (setting [7]).

On to `Oc1cc(O)c2c(c1)O[C@H](c1ccc(O)c(O)c1)[C@H](O)C2` [Epicatechin], for which the “IC50 Values (ELISA), PSA production” value in the data set with LnCAP Production of PSA is “Inactive”.

In the case of `O=c1c(O)c(-c2ccc(O)cc2)oc2cc(O)cc(O)c12` [Kaempherol, 3,4′,5,7-tetrahydroxy-flavone], the LD50 in the data set on EOC-20 cells (mouse) is reported as 70 μm. Moreover, the IC50 in the data set on LnCAP Production of PSA (Homo sapiens, LNCaP) is 68 µM; in [2] (setting [7]), 47 µM.

`CCCCC/C=C\C\C=C/C=C/C=C/[C@@H]1O[C@H]1CCCC(=O)O` [LTA4]: the “autonomous stimulation of NO2− production” value in data set [3] is given as “Neither LTA4 nor LTB4 stimulated NO2^− production autonomously”.

Regarding `CCCCC/C=C\C[C@@H](O)/C=C/C=C/C=C\[C@@H](O)CCCC(=O)O` [LTB4, Leukotriene B4], in data set [3] (10 μM, TNFα 4 ng/mL, 24 h), the “effect on nitrite yield with low-dose TNFα” value was “synergized with low-dose TNFα to produce a significantly greater nitrite yield”. Moreover, the “autonomous stimulation of NO2− production” value in data set [3] was “Neither LTA4 nor LTB4 stimulated NO2^− production autonomously”.

As for `Oc1cc(O)cc(/C=C/c2ccc(O)c(O)c2)c1` [Piceatannol, 3,3′,4′,5 -tetrahydroxy stilbene], the LD50 result in the data set on EOC-20 cells (setting [6]) is “nontoxic”. In addition, the “transcription of pro-inflammatory cytokines” value in data set [4] is “differentially inhibited transcription of the pro-inflammatory cytokines”. Further, the IC50 with LnCAP Production of PSA (Homo sapiens, LNCaP) amounted to 42 µM; in [2] (setting [7]), 15 µM.

Regarding `O=c1c(O)c(-c2ccc(O)c(O)c2)oc2cc(O)cc(O)c12` [Quercetin], in the data set on EOC-20 cells, the LD50 result is given as “nontoxic”. The figures for the IC50 (in [1]; with LnCAP Production of PSA (setting [8]); in data set [2] (setting [7])) were 0.062 µM, 131 µM and 44 µM, respectively.

For the molecule `Oc1ccc(/C=C/c2cc(O)cc(O)c2)cc1` [Resveratrol, 3,4′,5-trihydroxy stilbene], in the data set with EOC-20 cells, the LD50 result is on record as “nontoxic”. Further, the IC50 in the data set with LnCAP Production of PSA (Homo sapiens, LNCaP) amounted to 43 µM; in [2] (setting [7]) it was 80 µM.

Turning to `Nc1nc2ccc(OC(F)(F)F)cc2s1` [Riluzole], the extension in lifespan in the data set with G93A-SOD1 mice was 10 days.

In the case of `O=C(/C=C/c1ccc(O)c(O)c1)OCCc1ccccc1` [caffeic acid phenethyl ester (CAPE), caffeic acid phenethyl ester], in [2], the “activity against TNFα-stimulated nitrite production” value is “approximately as effective as curcumin”. The IC50 in data set [2] (setting [7]) was 12 µM; in data set [2] (Mus musculus, Table V), 12 µM. For the same molecule, in data set [2] (fold less effective than NDGA), the “efficacy relative to NDGA as inhibitor of TNFα-stimulated microglial activation” value turned out to be 4 fold. In the data set on lipoxygenase (times more effective than NDGA, Mirzoeva and Calder, 1996), the “lipoxygenase inhibition relative to NDGA” value is reported as around 10 times.

For the molecule `O=C(O[C@@H]1Cc2c(O)cc(O)cc2O[C@@H]1c1ccc(O)c(O)c1)c1cc(O)c(O)c(O)c1` [epicatechin gallate], the IC50 in data set [1] was 10 µM.

As for `O=c1c(O)c(-c2ccc(O)cc2O)oc2cc(O)cc(O)c12` [morin], the IC50 in data set [1] is 56 µM.

Take `COc1ccc(C[C@@H](C)[C@@H](C)Cc2ccc(OC)c(OC)c2)cc1OC` [tetra-o-methyl-NDGA]: in the data set with EOC-20 cells, the LD50 is on record as 125* μM. Besides, the “activity against TNFα-stimulated nitrite production” value in [2] is “modest bioactivity”. Further, the IC50 in data set [2] (Table V) was determined as 20 µM. Besides, the “lipoxygenase inhibition” value with lipoxygenase (literature) is reported as “does not inhibit lipoxygenase”.

B1: 5LOX: Human recombinant 5LOX (Cayman Chemical) (protein, UniProt P09917 1-674, looked up)
Polyunsaturated fatty acid …: MPSYTVTVATGSQWFAGTDDYIYLSLVGSAGCSEKHLLDKPFYNDFERGAVDSYDVTVDEELGEIQLVRIEKRKYWLNDDWYLKYITLKTPHGDYIEFPCYRWITGDVEVVLRDGRAKLARDDQIHILKQHRRKELETRQKQYRWMEWNPGFPLSIDAKCHKDLPRDIQFDSEKGVDFVLNYSKAMENLFINRFMHMFQSSWNDFADFEKIFVKISNTISERVMNHWQEDLMFGYQFLNGCNPVLIRRCTELPEKLPVTTEMVECSLERQLSLEQEVQQGNIFIVDFELLDGIDANKTDPCTLQFLAAPICLLYKNLANKIVPIAIQLNQIPGDENPIFLPSDAKYDWLLAKIWVRSSDFHVHQTITHLLRTHLVSEVFGIAMYRQLPAVHPIFKLLVAHVRFTIAINTKAREQLICECGLFDKANATGGGGHVQMVQRAMKDLTYASLCFPEAIKARGMESKEDIPYYFYRDDGLLVWEAIRTFTAEVVDIYYEGDQVVEEDPELQDFVNDVYVYGMRGRKSSGFPKSVKSREQLSEYLTVVIFTASAQHAAVNFGQYDWCSWIPNAPPTMRAPPPTAKGVVTIEQIVDTLPDRGRSCWHLGAVWALSQFQENELFLGMYPEEHFIEKPVKEAMARFRKNLEAIVSVIAERNKKKQLPYYYLSPDRIPNSVAI
Usually Kd stands for the concentration at which binding is half-saturated. Consider B1, for which the Kd with human wild-type SOD1 was at most 20 µM.
